Data as given in patent publication EP0220011A2, “Use of azabicloalkylbenzamides in the treatment of gastrointestinal motility disorders, migraine, emesis, cluster headaches, trigeminal neuralgia and arrhythmia” (BEECHAM GROUP PLC, priority 1985, dated 1987).

Tests used:
Assay type in all cases: in vivo
[1] = Intragastric pressure in the rat; settings: dose of 0.13 mg/kg s.c.; fasted conscious restrained rats; 40 minute period following dosing
Method: Intragastric pressure changes were recorded from fasted conscious and restrained rats using a saline filled catheter inserted into the lumen of the stomach via a permanent gastric fistula. The catheter was connected to a physiological pressure transducer and pressure changes recorded on a hot wire pen recorder. An index of activity was obtained by measuring the average height of pressure waves during 10 minute periods. Values for 4 such periods were obtained during assessment of spontaneous activity prior to dosing and for the 40 minute period following dosing with compound or vehicle. The Student's " t " test was applied to the mean values obtained for activity prior to and post treatment. Groups of 10 animals were used for each treatment.

[2] = tested on: von Bezold-Jarisch reflex evoked by 5-HT; assay: Antagonism of the von Bezold-Jarisch reflex; settings: iv; anaesthetised rat; reduces the 5-HT-evoked heart rate response to 50% of the control response
Method: The compounds were evaluated for antagonism of the von Bezold-Jarisch reflex evoked by 5-HT in the anaesthetised rat according to the following method: • Male rats, 250-350g, were anaesthetised with urethane (1.25g/kg intraperitoneally) and blood pressure and heart rate recorded as described by Fozard J.R. et al., J. Cardiovasc. Pharmacol. 2, 229-245 (1^80). A submaximal dose of 5-HT (usually 6ug/kg) was given repeatedly by the intravenous route and changes in heart rate quantified. Compounds were given intravenously and the concentration required to reduce the 5-HT-evoked response to 50% of the control response (ED50) was then determined.

[3] = Intraluminal pressure in the Heidenhain pouch of the dog; settings: dose of O.Olmg/kg i.v.; fasted conscious dog, chronic Heidenhain pouch; for at least 4-5 minutes
Method: Pressure changes were recorded via a saline filled catheter inserted, with airtight closure, into the fistula of a chronic Heidenhain pouch of the previously fasted and lightly restrained conscious dog. The catheter was connected to a physiological pressure transducer and pressure changes recorded on a hot wire pen recorder. Compounds were administered when the motility was in a phase of relatively low activity and the dose range determined which induced an increase in the amplitude of rhythmical contractions for a period of at least 4-5 minutes.

Which results are given for `COc1cc(N)c(Cl)cc1C(=O)NC1CC2CCC(C1)N2C` (stereo not drawn) [Compound No. 20, (endo)-4-amino-5-chloro-2-methoxy-N-(8-methyl-8-azabicyclo[3.2.1]octyl) benzamide]?
Intragastric pressure changes (average height of pressure waves) [1]: active; ED50 [2]: 0.8 ± 0.2 µg/kg

For `COc1cc(N)c(Br)cc1C(=O)NC1CC2CCC(C1)N2C` (stereo not drawn) [Example 1, (endo)-4-Amino-5-bromo-2-methoxy-N-(8-methyl-8-aza-bicyclo[3,2,l]oct-3-yl) benzamide], which “increase in the amplitude of rhythmical contractions (intraluminal pressure)” value [3] is on record?
Its value is “active”.
